From paper PMC6892276 (European Journal of Pharmaceutical Sciences, 2019)

Tests used:
[1] = CLint in cryopreserved dog hepatocyte suspensions; format: in vitro ADME; details: Beagle
Protocol: Cells were stored in the vapour phase of liquid nitrogen and thawed as per the supplier's instructions (rapid thawing at 37 °C, followed by centrifugation at 50 ×g for 5 min in thawing medium). Hepatocytes were re-suspended in a small volume of incubation medium (WME buffered with HEPES (final concentration 24 mM) adjusted to pH 7.4). Cell density was estimated using a haemocytometer and light microscope and viability determined according to the trypan blue exclusion method; cells were subsequently diluted to the required concentration in incubation medium. […]
(§1) For the purpose of CLint determination, samples were analysed using an Agilent 1290 Infinity ultra high-performance liquid chromatography (UHPLC) system coupled to an Agilent 6520 Quadrupole Time-of-flight mass spectrometer (Agilent Technologies, Stockport, UK). […]
(§2) In vitro data (parent compound LC-MS response) was fitted to a non-linear single exponential model using the software GraphPad Prism (v6.07, GraphPad Software, Inc., La Jolla, USA) to determine the elimination rate constant (k). CLint in hepatocytes and liver microsomes was calculated using Eqs. […]

CYP2C19 = test system: CYP2C19; design: method as in Bavetsias et al., 2012; details: ref Bavetsias et al., 2012; read-out: CYP2C19 inhibition IC50; cited from earlier work
CYP2D6 = test system: CYP2D6; design: method as in Bavetsias et al., 2012; details: ref Bavetsias et al., 2012; read-out: CYP2D6 inhibition IC50; cited from earlier work
CYP2C9 = test system: CYP2C9; design: method as in Bavetsias et al., 2012; details: ref Bavetsias et al., 2012; read-out: CYP2C9 inhibition IC50; cited from earlier work
[2] = design: method as in Bavetsias et al., 2012; details: rat; ref Bavetsias et al., 2012; cited from earlier work
[3] = test system: HCT116 (human colon carcinoma); design: method as in Bavetsias et al., 2012; details: ref Bavetsias et al., 2012; cited from earlier work
CYP2A6 = test system: CYP2A6; design: method as in Bavetsias et al., 2012; details: ref Bavetsias et al., 2012; read-out: CYP2A6 inhibition IC50; cited from earlier work
[4] = CLint in rat liver microsomes; format: in vitro ADME; details: Sprague Dawley, female, 1 mg/ml, NADPH
Protocol: (§3) All incubations of subcellular fractions and recombinant enzymes were conducted at 37 °C and 800 rpm using a Hamilton Microlab Star liquid handling workstation (Hamilton Robotics (Bonaduz, Switzerland)).
(§4) Prior to initiation of the reaction by the addition of NADPH (final concentration 1 mM), an aliquot was removed from each incubation and quenched in ice cold methanol containing internal standard (referred to as T0). NADPH was subsequently added to this solution for matrix matching. The remaining reaction (with addition of NADPH) was allowed to proceed for 60 min. At 0.5, 5, 15, 30 and 60 min aliquots were sampled and quenched as above. Incubations were conducted in singlicate; control incubations (substituting PBS for NADPH) were conducted simultaneously.
as §1, §2

rCYP3A4 = assay: Reaction phenotyping using recombinant CYP, CLint in rCYP3A4; format: in vitro ADME, human; details: scaled with ISEF 1.09 and CYP abundance 137 pmol P450/mg; corrected for fuCYP
Protocol: as §3
Recombinant CYP (100 pmol P450/ml) and control bactosome (at an equivalent protein concentration) were prepared in 100 mM KPB. […] The reaction was initiated by the addition of NADPH (final concentration 1 mM) and allowed to proceed for 20 min. At T0 (see Section 2.4.1), 0.5, 5, 10, 15 and 20 min, an aliquot was removed from each incubation and quenched in ice cold methanol containing internal standard.
CLint in rCYP was calculated using Eq. (3) and scaled to μl/min/mg microsomal protein using Eq. (4).(3) CLintμl/min/pmolP450=V·k/pmol protein (4) CLintμl/min/mgmicrosomal protein=CLintμl/min/pmolP450·ISEF·CYPabundance where ISEF is the Intersystem Extrapolation Factor and CYP abundance is amount of each CYP relative to microsomal protein. For rCYP3A4 an ISEF of 1.09 ([Certara, 2017]) and a CYP abundance of 137 pmol P450/mg microsomal protein ([Certara, 2017]) were used.
(§5) Unbound CLint (CLint,u) was calculated using Eq. (6).(6) CLint,u=CLint/fu

[5] = CLint in human liver microsomes; format: in vitro ADME; details: both sexes, mixed sex, 1 mg/ml, NADPH
Protocol: as §3, §4, §1, §2, §5

[6] = CLint in minipig liver microsomes; format: in vitro ADME; details: Gottingen, 1 mg/ml, NADPH
Protocol: as §3, §4, §1, §2

[7] = Protein binding in HLM (Rapid Equilibrium Dialysis); format: in vitro ADME; details: human, liver microsomes, HLM 1 mg/ml, dialysis 4 h at 37 °C, read-out: fumic (fraction unbound in microsomes)
Protocol: Samples were removed, matrix matched and quenched with methanol containing internal standard; further processing is as described in Section 2.6.
The fraction unbound (fu) in HLM/rCYP was calculated using Eq. (5).(5) fu=1/1+1/PARreceiver/PARdonor−1 where PAR = Peak Area Ratio of analyte/internal standard.

Cc1nn(C)cc1-c1nc2c(N3CCN(Cc4ccc(Cl)cc4)CC3)c(Cl)cnc2[nH]1 [CCT241736, 6-Chloro-7-(4-(4-chlorobenzyl)piperazin-1-yl)-2-(1,3-dimethyl-1Hpyrazol-4-yl)-3H-imidazo[4,5-b] pyridine]
hepatocyte CLint at 1 μM ([1]; pH 7.4, female): 3.9 µL/min/1e6 cells
hepatocyte CLint at 1 μM ([1]; pH 7.4, male): 8.4 µL/min/1e6 cells
IC50 (CYP2C19): > 10 µM
IC50 (CYP2C9): > 10 µM
clearance [2]: 4.57 mL/min/kg
anti-proliferative activity [3]: anti-proliferative activity
IC50 (CYP2A6): > 10 µM
microsomal CLint at 1 μM [4]: 2.7 ± 1.8 µL/min/mg
scaled CLint,u in rCYP3A4 (rCYP3A4): 4078 μl/min/mg microsomal protein
microsomal CLint at 1 μM [5]: 7.8 ± 1 µL/min/mg
microsomal CLint at 1 μM ([6]; female): 5.1 ± 1.1 µL/min/mg
microsomal CLint at 1 μM ([6]; male): 5.5 ± 0.9 µL/min/mg
fraction unbound at 4 h, 1 μM [7]: 0.0018
